These compounds were tested against Sphingosine 1-phosphate receptor 3 (Homo sapiens, UniProt Q99500) (assay: S1P3 receptor NFAT-BLA reporter inhibition, dose response, counter-screen for 5HT1E antagonist project, CHO cells, Ga15, NFAT beta-lactamase, FRET (AID 776)).
Sphingosine 1-phosphate receptor 3, sequence (Q99500 whole entry): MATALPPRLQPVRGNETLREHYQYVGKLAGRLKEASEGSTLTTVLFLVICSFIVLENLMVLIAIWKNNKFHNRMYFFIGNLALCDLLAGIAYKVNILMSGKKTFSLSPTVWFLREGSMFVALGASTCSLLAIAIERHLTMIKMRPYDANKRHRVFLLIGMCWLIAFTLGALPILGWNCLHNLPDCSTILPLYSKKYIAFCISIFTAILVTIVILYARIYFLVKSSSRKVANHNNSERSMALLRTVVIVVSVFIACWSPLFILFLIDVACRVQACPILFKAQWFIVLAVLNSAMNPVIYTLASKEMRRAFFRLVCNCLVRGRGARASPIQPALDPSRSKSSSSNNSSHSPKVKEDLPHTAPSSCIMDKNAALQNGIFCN

SMILES	IC50 [µM]
CCC(NC(=O)Nc1nnc(C(F)(F)F)s1)(C(F)(F)F)C(F)(F)F	> 12.4
CC(C)=CCC(C)(C)CNC(=O)NC1CCCCC1	> 50
O=C(Nc1ccc(-c2nc3ncccc3o2)cc1)c1ccc(Br)o1	> 50
O=S1(=O)C=C(Sc2nnc(-c3ccccc3)o2)c2ccccc21	2.33
CCCOCCOC(=O)c1[nH]c2c(c1C)C(=O)CC(c1cc(OC)ccc1OC)C2 (stereo not drawn)	> 39
OCC12C=CC(O1)c1c2c(O)n(-c2ccc(-c3ccccc3)cc2)c1O (stereo not drawn)	> 12.4
CCn1nc(-c2ccccc2)nc2c(=O)n(C)c(=O)nc1-2 [1-Ethyl-6-methyl-3-phenyl-1H-pyrimido[5,4-e][1,2,4]triazine-5,7-dione]	1.08
Cn1c(-c2c(N)n(C3CCCC3)c3nc4ccccc4nc23)nc2ccccc21 [1-cyclopentyl-3-(1-methyl-2-benzimidazolyl)-2-pyrrolo[3,2-b]quinoxalinamine]	2.04
CCn1nc(-c2cccs2)nc2c(=O)n(C)c(=O)nc1-2 [1-ethyl-6-methyl-3-thiophen-2-yl-pyrimido[5,4-e][1,2,4]triazine-5,7-dione]	0.815
COc1ccc(-n2nnnc2S(=O)(=O)CC(=O)N2CCCCC2)cc1 [2-[1-(4-methoxyphenyl)tetrazol-5-yl]sulfonyl-1-piperidin-1-ylethanone]	4.32
N#CCCS(=O)(=O)c1nnnn1-c1ccccc1 [3-(1-phenyltetrazol-5-yl)sulfonylpropanenitrile]	3.33
COc1cccc(N2CCN(c3ncnc4c3[nH]c3ccccc34)CC2C)c1 (stereo not drawn) [4-[4-(3-methoxyphenyl)-3-methyl-1-piperazinyl]-5H-pyrimido[5,4-b]indole]	4.3
Cc1ccc(-n2nc3c([n+]2[O-])CCc2c-3n[o+]n2[O-])cc1 [7-(4-methylphenyl)-3,6-dioxido-4,5-dihydrotriazolo[4,5-e][2,1,3]benzoxadiazole-3,6-diium]	5.78
COc1cccc(N2CCN(c3ncnc4c3[nH]c3ccc(F)cc34)CC2C)c1 (stereo not drawn) [8-fluoranyl-4-[4-(3-methoxyphenyl)-3-methyl-piperazin-1-yl]-5H-pyrimido[5,4-b]indole]	0.934
COc1ccccc1-c1nnc2n1N=C(c1ccc(O)c(O)c1)CS2 [(4E)-4-[3-(2-methoxyphenyl)-5H-[1,2,4]triazolo[3,4-b][1,3,4]thiadiazin-6-ylidene]-2-oxidanyl-cyclohexa-2,5-dien-1-one]	> 50
CC(=O)Nc1cc(OC(C)=O)c2nonc2c1OC(C)=O [Acetic acid 7-acetoxy-5-acetylamino-benzo[1,2,5]oxadiazol-4-yl ester]	1.82
COC(=O)Nc1nc2ccc(Sc3ccccc3)cc2[nH]1 [FENBENDAZOLE]	> 50
CS(=O)(=O)c1nc(-c2ccccc2)cc(C(F)(F)F)n1 [MLS000044644]	3.51
CS(=O)(=O)c1nc(-c2cccs2)cc(C(F)(F)F)n1 [MLS000044645]	3.45
N#C/C(=C/c1ccc(N2CCCCCC2)o1)c1ccc(F)cc1 [MLS000051438]	4.69
COc1ccc(-n2c(O)cc(NCc3ccncc3)c2O)cc1 [MLS000099014]	> 50
COCCOC(=O)c1[nH]c2c(c1C)C(=O)CC(c1ccccc1)C2 (stereo not drawn) [SMR000025505]	> 50
CCCc1nnc2n1N=C(c1ccc(OC)c(OC)c1)CS2 [SMR000057783]	> 50
Cc1ccc(N(CC2=NCCN2)c2cccc(O)c2)cc1 [SMR000059054]	> 50
CN(C)c1nc(OCCNC(=O)COc2ccc(Cl)cc2Cl)nc(N2CCCCC2)n1 [SMR000072558]	> 50
COc1cc2c(cc1OC)C1=C(C#N)CC=C(NS(=O)(=O)c3ccccc3)N1CC2 [SMR000092093]	> 50
COc1ccc(C2N(c3ccc(F)cc3)C(=O)C3CCCN32)cc1 (stereo not drawn) [SMR000094164]	> 50
CSc1ccccc1NC=C1C(=O)CC(C)(C)CC1=O [SMR000111352]	4.33
COC(=O)/C(=C1/Oc2cc(C)oc(=O)c2S1)C(F)(F)F [methyl (2E)-3,3,3-tris(fluoranyl)-2-(6-methyl-4-oxidanylidene-[1,3]oxathiolo[4,5-c]pyran-2-ylidene)propanoate]	1.42

More lines, now with the values ahead:

IC50 [µM]	SMILES
1.68	CCN(CC)c1ccc2c(Cl)c(Br)c(=O)oc2c1
> 17.7	COc1cc2c(cc1OC)-c1cc(N3CCCc4ccccc43)nc(=O)n1CC2 [2-(3,4-dihydro-2H-quinolin-1-yl)-9,10-dimethoxy-6,7-dihydropyrimido[6,1-a]isoquinolin-4-one]
5.18	COc1ccc(-c2cc(C(F)(F)F)nc(S(C)(=O)=O)n2)cc1OC [4-(3,4-dimethoxyphenyl)-2-methylsulfonyl-6-(trifluoromethyl)pyrimidine]
> 39	Cc1ccc(S(=O)(=O)Nc2cccc3ncccc23)s1 [5-methyl-N-quinolin-5-ylthiophene-2-sulfonamide]
> 12.4	CCOc1ccc(C2=Nn3c(nnc3-c3ccccc3OC)SC2)cc1 [6-(4-ethoxyphenyl)-3-(2-methoxyphenyl)-7H-[1,2,4]triazolo[3,4-b][1,3,4]thiadiazine]
> 12.4	CCn1c(=O)c(C(=O)Nc2nc3ccccc3[nH]2)c(O)c2ccccc21 [MLS000027148]
4.88	CS(=O)(=O)c1nc(-c2ccco2)cc(C(F)(F)F)n1 [MLS000044646]
> 17.7	CCOc1cccc(-c2nnc3n2N=C(c2cc(OC)ccc2OC)CS3)c1 [MLS000081451]
7.56	CC(=O)Oc1ccc(-n2c(O)c3c(c2O)C2(C)C=CC3(C)O2)cc1 [MLS000107813]
> 12.4	O=C(Nc1ccc(N2CCOCC2)cc1)Nc1ccc2nc(-c3ccco3)c(-c3ccco3)nc2c1 [N-(2,3-di-2-furyl-6-quinoxalinyl)-N'-[4-(4-morpholinyl)phenyl]urea]
5.06	COc1cccc(N2CCN(c3ncnc4c3cnn4-c3ccc(C)cc3C)CC2)c1 [SMR000017007]
> 50	CCCOc1ccc2nc(NC(=O)OC)[nH]c2c1 [SMR000058208]
7.55	Clc1ccc(-n2nnnc2Sc2ncnc3sccc23)cc1 [SMR000066808]
> 39	COc1cc(NS(=O)(=O)c2ccc(C)cc2)c2ncccc2c1 [SMR000071147]

Source: BindingDB's records for doi:10.7270/Q2D50KC1 (The Scripps Research Institute Molecular Screening Center, 2007)
